The source of these data is patent publication US20240279202A1 (NURIX THERAPEUTICS, INC., priority 2021, published 2024).

As a reminder, the DC50 is the concentration giving 50% degradation. Low readings indicate degradation at low concentration, high ones degradation only at high concentration. By Dmax is commonly meant the largest share of the target that was removed. A lower Dmax goes with a partial loss of target. In general, AUC(0-t) refers to the area under the concentration-time curve up to a stated or last time point. Usually Cmax stands for the maximum level reached in the sampled fluid or tissue. The term Tmax denotes the time at which the peak concentration occurs.

Series [1] concerns the target T1, ITK (Homo sapiens, UniProt Q08881).
T1 sequence (Q08881 1-620): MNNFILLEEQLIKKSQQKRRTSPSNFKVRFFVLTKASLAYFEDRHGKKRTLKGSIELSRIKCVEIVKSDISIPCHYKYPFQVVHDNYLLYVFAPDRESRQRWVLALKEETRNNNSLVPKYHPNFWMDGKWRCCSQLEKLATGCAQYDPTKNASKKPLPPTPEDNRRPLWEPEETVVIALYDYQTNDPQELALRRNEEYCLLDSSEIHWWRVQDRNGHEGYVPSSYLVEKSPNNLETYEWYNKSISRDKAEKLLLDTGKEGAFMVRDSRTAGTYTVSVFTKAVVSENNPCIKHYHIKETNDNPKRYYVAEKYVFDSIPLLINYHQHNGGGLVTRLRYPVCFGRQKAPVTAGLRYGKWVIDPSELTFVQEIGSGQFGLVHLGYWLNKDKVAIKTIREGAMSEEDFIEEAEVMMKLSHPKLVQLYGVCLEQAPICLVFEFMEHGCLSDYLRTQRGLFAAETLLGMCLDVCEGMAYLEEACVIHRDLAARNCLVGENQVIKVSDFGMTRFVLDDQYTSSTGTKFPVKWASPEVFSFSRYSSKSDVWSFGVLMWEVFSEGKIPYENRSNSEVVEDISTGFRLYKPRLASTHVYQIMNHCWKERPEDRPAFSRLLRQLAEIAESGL
Description: ITK degradation HiBiT assay. More on the design: expressed in transfected cells; host or cells: Molt4 (ATCC CRL-1552), monoclonal clone 1C10, engineered to carry the HiBiT tag. The note with it: 4 hrs; for DC50: C-terminal HiBiT-tagged Molt4 cells; for Dmax: MOLT-4, C-terminal HiBiT-tagged Molt4 cells. The format is cell-based. Summed up:
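C-terminal HiBiT-tagged Molt4 cells (clone 1C10) treated 4 h at 32° C with an 11-point, 5-fold compound dilution series (0.5% DMSO). HiBiT lytic detection with LgBiT then luminescence read; % ITK remaining versus concentration fit by four-parameter variable-slope model to give DC50 and Dmax.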
(In general: HiBiT is a short tag that completes a luciferase, so light tracks the accessible tagged protein.)

Series [2] in a line: Mouse PK analysis (blood/plasma concentration after oral administration). The note with it: mouse, mice; for AUC(0-t) / Cmax / Tmax: oral, plasma. The class given is in vivo. An outline of the steps:
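Mice were dosed by oral gavage at 90 mg/kg with blood sampled at 1, 2 and 6 h; a second study used oral dosing with plasma taken at 6 or 24 h. Plasma levels were measured by LC/MS/MS (acetonitrile precipitation, internal-standard curve, positive ESI MRM), and Cmax, Tmax and AUClast were derived by noncompartmental analysis.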

Where a name gives a salt, the structure may show the parent alone.

Turning to `C[C@@H](C(=O)N(C)c1ccc2cc(-c3n[nH]c4c3C[C@@H]3C(F)(F)[C@]3(C)C4)[nH]c2c1)N1CCN(C[C@H]2CCN(c3ccc4c(c3)C(=O)N(C3CCC(=O)NC3=O)C4=O)C2)CC1` (stereo partly drawn) [Compound 9, (2S)—N-(2-((4aS,5aR)-5,5-difluoro-5a-methyl-1,4,4a,5,5a,6-hexahydrocyclopropa[f]indazol-3-yl)-1H-indol-6-yl)-2-(4-(((3R)-1-(2-(2,6-dioxopiperidin-3-yl)-1,3-dioxoisoindolin-5-yl)pyrrolidin-3-yl)methyl)piperazin-1-yl)-N-methylpropanamide], in series [1], the half-maximal degradation concentration (DC50) amounted to 0.21 nM and the Dmax stood at 85%. Moreover, in series [2], the AUC(0-t) amounted to 0.154 µM·h, the peak level (Cmax) was 46 nM and the Tmax was 6 h.
In series [1], `C[C@@H](C(=O)N(C)c1ccc2cc(-c3n[nH]c4c3CCC(C)(C)C4)[nH]c2c1)N1CCN(CC2CCN(c3cccc4c3n(C)c(=O)n4C3CCC(=O)NC3=O)CC2)CC1` (stereo partly drawn) [Compound 3, (2S)—N-(2-(6,6-dimethyl-4,5,6,7-tetrahydro-1H-indazol-3-yl)-1H-indol-6-yl)-2-(4-((1-(1-(2,6-dioxopiperidin-3-yl)-3-methyl-2-oxo-2,3-dihydro-1H-benzo[d]imidazol-4-yl)piperidin-4-yl)methyl)piperazin-1-yl)-N-methylpropanamide] yielded a 50% degradation concentration (DC50) of 0.29 nM and a Dmax of 76%. Further, in series [2] (90 mg/kg PO, blood, timepoint 1 h, read-out: Concentration (μM), mean calculated), the concentration at 1 h is 0.228 µM. In addition, the concentration at 2 h in series [2] (90 mg/kg PO, blood, timepoint 2 h, read-out: Concentration (μM), mean calculated) was 0.702 µM. Moreover, in series [2] (90 mg/kg PO, blood, timepoint 6 h, read-out: Concentration (μM), mean calculated), the concentration at 6 h was 2.71 µM. Moreover, in series [2], the exposure AUC(0-t) amounted to 1.99 µM·h, the Cmax is 471 nM and the Tmax is 4 h.
In series [1], `C[C@@]12Cc3[nH]nc(-c4cc5ccc(N6CCC7(CCN(Cc8ccc9c(c8)C(=O)N(C8CCC(=O)NC8=O)C9=O)CC7)C6=O)cc5[nH]4)c3C[C@@H]1C2(F)F` (stereo partly drawn) [Compound 15, 5-((2-(2-((4aS,5aR)-5,5-difluoro-5a-methyl-1,4,4a,5,5a,6-hexahydrocyclopropa[f]indazol-3-yl)-1H-indol-6-yl)-1-oxo-2,8-diazaspiro[4.5]decan-8-yl)methyl)-2-(2,6-dioxopiperidin-3-yl)isoindoline-1,3-dione hydrochloride] registered a DC50 of 0.35 nM and a Dmax of 93%. Further, in series [2], the AUC(0-t) was 3.14 µM·h, the Cmax was 743 nM and the Tmax came to 4 h.
Consider `C[C@@H](C(=O)N(C)c1ccc2cc(-c3n[nH]c4c3CCC(C)(C)C4)[nH]c2c1)N1CCN(C[C@@H]2CCN(c3ccc4c(c3)n(C)c(=O)n4C3CCC(=O)NC3=O)C2)CC1` (stereo partly drawn) [Compound 4, (2S)—N-(2-(6,6-dimethyl-4,5,6,7-tetrahydro-1H-indazol-3-yl)-1H-indol-6-yl)-2-(4-(((3S)-1-(1-(2,6-dioxopiperidin-3-yl)-3-methyl-2-oxo-2,3-dihydro-1H-benzo[d]imidazol-5-yl)pyrrolidin-3-yl)methyl)piperazin-1-yl)-N-methylpropanamide], for which, in series [1], half-maximal degradation (DC50) was put at 2.3 nM and the Dmax amounted to 64%. In series [2], the AUC(0-t) was found to be 0.54 µM·h, the peak level (Cmax) was 127 nM and the Tmax was found to be 2 h.
Take `C[C@@H](C(=O)N(C)c1ccc2cc(-c3n[nH]c4c3C[C@@H]3C(F)(F)[C@]3(C)C4)[nH]c2c1)N1CCN(CC2CCN(c3cccc4c3n(C)c(=O)n4C3CCC(=O)NC3=O)CC2)CC1` (stereo partly drawn) [Compound 65, (2S)—N-(2-((4aS,5aR)-5,5-difluoro-5a-methyl-1,4,4a,5,5a,6-hexahydrocyclopropa[f]indazol-3-yl)-1H-indol-6-yl)-2-(4-((1-(1-(2,6-dioxopiperidin-3-yl)-3-methyl-2-oxo-2,3-dihydro-1H-benzo[d]imidazol-4-yl)piperidin-4-yl)methyl)piperazin-1-yl)-N-methylpropanamide]: in series [1], the DC50 stood at 0.35 nM and the Dmax came out at 80%. In series [2], the exposure AUC(0-t) came to 1.38 µM·h, the Cmax was 405 nM and the Tmax worked out at 6 h.
